In patent US11000033B2, “Ketone or oxime compound, and herbicide” (NISSAN CHEMICAL CORPORATION, priority 2014, dated 2021):

What was measured:
Assay type in all cases: in vivo
Scirpus juncoides = experiment: Test Example 1: herbicidal activity, application before weed generation in submerged conditions (symbol B); conditions: application herbicide amount 320 g/ha
Outline: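 Weeds are sown into submerged alluvial soil alongside transplanted 2.5-leaf rice, and the compound, as an emulsion diluted to a set rate, is applied onto the water before emergence. Rating on the 0–5 herbicidal-ratio scale follows 3 weeks of greenhouse growth at 25–30 °C.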

transplanted rice plant = experiment: Test Example 1: effect on crop, application before weed generation in submerged conditions (symbol a); conditions: application herbicide amount 320 g/ha
Outline: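 Alluvial soil pots flooded to 4 cm water, sown with Echinochloa oryzacola, Scirpus juncoides and Monochoria vaginalis, then transplanted with 2.5 leaf stage rice seedlings; pre-emergence application. Greenhouse 25° C. to 30° C.; scored 0–5 by herbicidal ratio 3 weeks after application.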

Leptochloa chinensis = experiment: Test Example 3: herbicidal effect by foliage application, Wagner pot (symbol D); conditions: application herbicide amount 320 g/ha
Outline: (§1)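 Scoring took place 3 weeks after application, using fixed criteria. Plants had been raised from seed for 14 days at 25 to 30 °C in submerged alluvial soil before a diluted emulsion of the test compound was sprayed uniformly on the leaves.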

Cyperus difformis = experiment: Test Example 3: herbicidal effect by foliage application, Wagner pot (symbol E); conditions: application herbicide amount 320 g/ha
Outline: as §1

[1] = system: Echinochloa crus-galli var. crus-galli; experiment: Test Example 4: herbicidal effect by soil treatment (symbol H)
Outline: (§2)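 Seeds were sown in sterilized diluvial soil, covered with about 1.5 cm of soil, and the soil surface was sprayed with a water-diluted emulsion of the compound at a predetermined rate. Plants grew in a greenhouse at 25° C. to 30° C.; effects were scored visually 3 weeks after application.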

Lolium multiflorum Lam. = experiment: Test Example 4: herbicidal effect by soil treatment (symbol K)
Outline: as §2

Amaranthus retroflexus = experiment: Test Example 4: herbicidal effect by soil treatment (symbol N)
Outline: as §2

Veronica persica [2] = experiment: Test Example 4: herbicidal effect by soil treatment (symbol R)
Outline: as §2

corn = experiment: Test Example 4: effect on crop by soil treatment (symbol c)
Outline: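 Steps: fill box with sterilized diluvial soil; sow seed spot-like; cover with ~1.5 cm soil; grow in greenhouse (25° C. to 30° C.).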

beet = experiment: Test Example 4: effect on crop by soil treatment (symbol f)
Outline: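 Grown at 25° C. to 30° C. in a greenhouse, the crops came from seed sown spot-wise in sterilized diluvial soil under roughly 1.5 cm of covering soil.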

Setaria viridis = experiment: Test Example 5: herbicidal effect by foliage application, plastic box (symbol G); conditions: 320 g/ha, 3 weeks after application
Outline: (§3)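 After sowing into sterilized diluvial soil and growing two weeks under glass at 25° C. to 30° C., seedlings receive a uniform foliar spray of diluted emulsion. Damage is judged visually three weeks on.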

Galium spurium = experiment: Test Example 5: herbicidal effect by foliage application, plastic box (symbol Q); conditions: 320 g/ha, 3 weeks after application
Outline: as §3

Veronica persica [3] = experiment: Test Example 5: herbicidal effect by foliage application, plastic box (symbol R); conditions: 320 g/ha, 3 weeks after application
Outline: as §3

soybean = experiment: Test Example 5: effect on crop by foliage application, plastic box (symbol d); conditions: 320 g/ha, 3 weeks after application
Outline: (§4)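 Greenhouse culture at 25° C. to 30° C. followed spot-like sowing into sterilized diluvial soil, with seed covered by roughly 1.5 cm of soil.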

wheat = experiment: Test Example 5: effect on crop by foliage application, plastic box (symbol e); conditions: 320 g/ha, 3 weeks after application
Outline: as §4

[4] = application herbicide amount 320 g/ha

Compound: CC#Cc1cc(C)c(C2=C(OC(=O)COc3ccccc3)CC(CC(=NOC)C(C)C)C2=O)c(C)c1 (stereo not drawn) [9-003]
- Herbicidal effect grade, B: Scirpus juncoides (Scirpus juncoides): 4 (Herbicidal ratio of 70% or higher and lower than 90%)
- Effect grade on crop, a: transplanted rice plant (transplanted rice plant): 5 (Herbicidal ratio of 90% or more (almost completely withered))
- D (Leptochloa chinensis) herbicidal effect grade (Leptochloa chinensis; Table 24): 5 (Herbicidal ratio of 90% or more (almost completely withered))
- E herbicidal effect grade (Cyperus difformis; Table 24): 5 (Herbicidal ratio of 90% or more (almost completely withered))
- Herbicidal effect grade, H: Echinochloa crus-galli var. crus-galli [1, 4]: 5 (Herbicidal ratio of 90% or more (almost completely withered))
- Herbicidal effect grade, K: Lolium multiflorum Lam. (Lolium multiflorum Lam.; [4]): 5 (Herbicidal ratio of 90% or more (almost completely withered))
- Herbicidal effect grade, N: Amaranthus retroflexus (Amaranthus retroflexus; [4]): 0 (Herbicidal ratio of 5% or lower (almost no effect))
- Herbicidal effect grade, R: Veronica persica (Veronica persica [2]; [4]): 0 (Herbicidal ratio of 5% or lower (almost no effect))
- Effect on crop grade, c: corn (corn; [4]): 5 (Herbicidal ratio of 90% or more (almost completely withered))
- Effect on crop grade, f: beet (beet; [4]): 0 (Herbicidal ratio of 5% or lower (almost no effect))
- G: Setaria viridis, herbicidal effect grade (Setaria viridis): 5 (Herbicidal ratio of 90% or more (almost completely withered))
- Q: Galium spurium, herbicidal effect grade (Galium spurium): 0 (Herbicidal ratio of 5% or lower (almost no effect))
- R: Veronica persica, herbicidal effect grade (Veronica persica [3]): 4 (Herbicidal ratio of 70% or higher and lower than 90%)
- d: soybean, effect on crop grade (soybean): 4 (Herbicidal ratio of 70% or higher and lower than 90%)
- e: wheat, effect on crop grade (wheat): 4 (Herbicidal ratio of 70% or higher and lower than 90%)

Compound: CCCCCCCON=C(C)CC1CC(O)=C(c2c(C)cc(C)cc2C)C1=O (stereo not drawn) [1-054]
- Herbicidal effect grade, B: Scirpus juncoides (Scirpus juncoides): 0 (Herbicidal ratio of 5% or lower (almost no effect))
- Effect grade on crop, a: transplanted rice plant (transplanted rice plant): 5 (Herbicidal ratio of 90% or more (almost completely withered))
- herbicidal effect on D (Leptochloa chinensis), grade 0-5 (Leptochloa chinensis): 3 (Herbicidal ratio of 40% or higher and lower than 70%)
- herbicidal effect on E, grade 0-5 (Cyperus difformis): 0 (Herbicidal ratio of 5% or lower (almost no effect))
- H (Echinochloa crus-galli var. crus-galli) herbicidal effect grade [1, 4]: 4 (Herbicidal ratio of 70% or higher and lower than 90%)
- K (Lolium multiflorum Lam.) herbicidal effect grade (Lolium multiflorum Lam.; [4]): 5 (Herbicidal ratio of 90% or more (almost completely withered))
- N (Amaranthus retroflexus) herbicidal effect grade (Amaranthus retroflexus; [4]): 0 (Herbicidal ratio of 5% or lower (almost no effect))
- R (Veronica persica) herbicidal effect grade (Veronica persica [2]; [4]): 0 (Herbicidal ratio of 5% or lower (almost no effect))
- c (corn) effect on crop grade (corn; [4]): 0 (Herbicidal ratio of 5% or lower (almost no effect))
- f (beet) effect on crop grade (beet; [4]): 0 (Herbicidal ratio of 5% or lower (almost no effect))
- G: Setaria viridis, herbicidal effect grade (Setaria viridis): 3 (Herbicidal ratio of 40% or higher and lower than 70%)
- Q: Galium spurium, herbicidal effect grade (Galium spurium): 0 (Herbicidal ratio of 5% or lower (almost no effect))
- R: Veronica persica, herbicidal effect grade (Veronica persica [3]): 0 (Herbicidal ratio of 5% or lower (almost no effect))
- d: soybean, effect on crop grade (soybean): 0 (Herbicidal ratio of 5% or lower (almost no effect))
- e: wheat, effect on crop grade (wheat): 0 (Herbicidal ratio of 5% or lower (almost no effect))

Compound: CCC(CC1CC(O)=C(c2c(C)cc(C)cc2C)C1=O)=NOC (stereo not drawn) [1-038]
- Herbicidal effect grade, B: Scirpus juncoides (Scirpus juncoides): 5 (Herbicidal ratio of 90% or more (almost completely withered))
- Effect grade on crop, a: transplanted rice plant (transplanted rice plant): 5 (Herbicidal ratio of 90% or more (almost completely withered))
- herbicidal effect on D (Leptochloa chinensis), grade 0-5 (Leptochloa chinensis): 5 (Herbicidal ratio of 90% or more (almost completely withered))
- herbicidal effect on E, grade 0-5 (Cyperus difformis): 5 (Herbicidal ratio of 90% or more (almost completely withered))
- H (Echinochloa crus-galli var. crus-galli) herbicidal effect grade [1, 4]: 5 (Herbicidal ratio of 90% or more (almost completely withered))
- K (Lolium multiflorum Lam.) herbicidal effect grade (Lolium multiflorum Lam.; [4]): 5 (Herbicidal ratio of 90% or more (almost completely withered))
- N (Amaranthus retroflexus) herbicidal effect grade (Amaranthus retroflexus; [4]): 3 (Herbicidal ratio of 40% or higher and lower than 70%)
- R (Veronica persica) herbicidal effect grade (Veronica persica [2]; [4]): 0 (Herbicidal ratio of 5% or lower (almost no effect))
- c (corn) effect on crop grade (corn; [4]): 3 (Herbicidal ratio of 40% or higher and lower than 70%)
- f (beet) effect on crop grade (beet; [4]): 0 (Herbicidal ratio of 5% or lower (almost no effect))
- G: Setaria viridis, herbicidal effect grade (Setaria viridis): 5 (Herbicidal ratio of 90% or more (almost completely withered))
- Q: Galium spurium, herbicidal effect grade (Galium spurium): 0 (Herbicidal ratio of 5% or lower (almost no effect))
- R: Veronica persica, herbicidal effect grade (Veronica persica [3]): 1 (Herbicidal ratio of 5% or higher and lower than 20%)
- d: soybean, effect on crop grade (soybean): 4 (Herbicidal ratio of 70% or higher and lower than 90%)
- e: wheat, effect on crop grade (wheat): 4 (Herbicidal ratio of 70% or higher and lower than 90%)

Compound: CON=C(CC1CC(O)=C(c2c(C)cc(C)cc2C)C1=O)C1CCCC1 (stereo not drawn) [1-078]
- Herbicidal effect grade, B: Scirpus juncoides (Scirpus juncoides): 2 (Herbicidal ratio of 20% or higher and lower than 40%)
- Effect grade on crop, a: transplanted rice plant (transplanted rice plant): 5 (Herbicidal ratio of 90% or more (almost completely withered))
- herbicidal effect on D (Leptochloa chinensis), grade 0-5 (Leptochloa chinensis): 4 (Herbicidal ratio of 70% or higher and lower than 90%)
- herbicidal effect on E, grade 0-5 (Cyperus difformis): 0 (Herbicidal ratio of 5% or lower (almost no effect))
- H: Echinochloa crus-galli var. crus-galli, herbicidal effect grade ([1]; 320 g/ha): 2 (Herbicidal ratio of 20% or higher and lower than 40%)
- K: Lolium multiflorum Lam., herbicidal effect grade (Lolium multiflorum Lam.; 320 g/ha): 5 (Herbicidal ratio of 90% or more (almost completely withered))
- N: Amaranthus retroflexus, herbicidal effect grade (Amaranthus retroflexus; 320 g/ha): 0 (Herbicidal ratio of 5% or lower (almost no effect))
- R: Veronica persica, herbicidal effect grade (Veronica persica [2]; 320 g/ha): 0 (Herbicidal ratio of 5% or lower (almost no effect))
- c: corn, effect grade on crop (corn; 320 g/ha): 4 (Herbicidal ratio of 70% or higher and lower than 90%)
- f: beet, effect grade on crop (beet; 320 g/ha): 0 (Herbicidal ratio of 5% or lower (almost no effect))
- G: Setaria viridis, herbicidal effect (criteria 0-5) (Setaria viridis): 5 (Herbicidal ratio of 90% or more (almost completely withered))
- Q: Galium spurium, herbicidal effect (criteria 0-5) (Galium spurium): 0 (Herbicidal ratio of 5% or lower (almost no effect))
- R: Veronica persica, herbicidal effect (criteria 0-5) (Veronica persica [3]): 0 (Herbicidal ratio of 5% or lower (almost no effect))
- d: soybean, effect on crop (criteria 0-5) (soybean): 0 (Herbicidal ratio of 5% or lower (almost no effect))
- e: wheat, effect on crop (criteria 0-5) (wheat): 0 (Herbicidal ratio of 5% or lower (almost no effect))

Compound: CON=C(C)CC1CC(OC(=O)COc2ccccc2OC)=C(c2c(C)cc(C)cc2C)C1=O (stereo not drawn) [1-067]
- Herbicidal effect grade, B: Scirpus juncoides (Scirpus juncoides): 5 (Herbicidal ratio of 90% or more (almost completely withered))
- Effect grade on crop, a: transplanted rice plant (transplanted rice plant): 5 (Herbicidal ratio of 90% or more (almost completely withered))
- herbicidal effect on D (Leptochloa chinensis), grade 0-5 (Leptochloa chinensis): 5 (Herbicidal ratio of 90% or more (almost completely withered))
- herbicidal effect on E, grade 0-5 (Cyperus difformis): 5 (Herbicidal ratio of 90% or more (almost completely withered))
- H (Echinochloa crus-galli var. crus-galli) herbicidal effect grade [1, 4]: 5 (Herbicidal ratio of 90% or more (almost completely withered))
- K (Lolium multiflorum Lam.) herbicidal effect grade (Lolium multiflorum Lam.; [4]): 5 (Herbicidal ratio of 90% or more (almost completely withered))
- N (Amaranthus retroflexus) herbicidal effect grade (Amaranthus retroflexus; [4]): 5 (Herbicidal ratio of 90% or more (almost completely withered))
- R (Veronica persica) herbicidal effect grade (Veronica persica [2]; [4]): 0 (Herbicidal ratio of 5% or lower (almost no effect))
- c (corn) effect on crop grade (corn; [4]): 3 (Herbicidal ratio of 40% or higher and lower than 70%)
- f (beet) effect on crop grade (beet; [4]): 0 (Herbicidal ratio of 5% or lower (almost no effect))
- G: Setaria viridis, herbicidal effect grade (Setaria viridis): 5 (Herbicidal ratio of 90% or more (almost completely withered))
- Q: Galium spurium, herbicidal effect grade (Galium spurium): 2 (Herbicidal ratio of 20% or higher and lower than 40%)
- R: Veronica persica, herbicidal effect grade (Veronica persica [3]): 3 (Herbicidal ratio of 40% or higher and lower than 70%)
- d: soybean, effect on crop grade (soybean): 4 (Herbicidal ratio of 70% or higher and lower than 90%)
- e: wheat, effect on crop grade (wheat): 5 (Herbicidal ratio of 90% or more (almost completely withered))
